Where two headings read alike, the source gives them in different places. Marks after values point to notes of the source that are not given here.
Columns and labels:
[1] = filgotinib 100 mg QD for 10 days
[2] = cited from earlier work; for Fraction excreted in the urine: in humans, filgotinib unchanged, metabolite as such
[3] = Effect of renal impairment; conditions: for Ae0–24 h (amount excreted in the urine over 24 h) / AUC(0-t) / CL renal / tmax / half-life / AUC0–24 h / CLR (renal clearance) / t½,λz (apparent terminal half-life) / R (metabolite-to-parent ratio, AUC0–24 h): 100 mg QD; for Ae0–24 h (amount excreted in the urine over 24 h) / AUC(0-t) / CL renal / half-life / AUC0–24 h / CLR (renal clearance) / t½,λz (apparent terminal half-life) / Cmax: arithmetic mean (CV%); for AUC(0-t): AUC0–24 h; for CL renal: CLR (renal clearance); for tmax: median (min–max); for half-life: t½,λz (apparent terminal half-life); for CLR lower (drop) compared with subjects with normal renal function: severe RI vs normal renal function; for R (metabolite-to-parent ratio, AUC0–24 h): geometric mean (CV%); for Cmax: filgotinib 100 mg QD 10 days, tablet, fasted
[4] = for Ae0–24 h (amount excreted in the urine over 24 h) / AUC(0-t) / CL renal / half-life / AUC0–24 h / CLR (renal clearance) / t½,λz (apparent terminal half-life) / Cmax: arithmetic mean (CV%); for AUC(0-t): AUC0–24 h; for CL renal: CLR (renal clearance); for half-life: t½,λz (apparent terminal half-life); for Time to steady state: predose (trough) concentrations, regardless of the age group; for R (metabolite-to-parent ratio, AUC0–24 h): geometric mean (CV%); for Cmax: filgotinib 100 mg QD 10 days, capsule, fed, N = 10
[5] = system: JAK1; conditions: cited from earlier work
[6] = both, human, in vivo, 100 mg, day 10, mild RI
[7] = both, human, in vivo, 100 mg, day 10, moderate RI
[8] = both, human, in vivo, 100 mg, day 10, normal renal function
[9] = both, human, in vivo, 100 mg, day 10, severe RI
[10] = 100 mg QD, day 10, age 40–50 years
[11] = 100 mg QD, day 10, age 65–74 years
[12] = 100 mg QD, day 10, age 65–74 years, median (min–max)
[13] = 100 mg QD, day 10, age ≥75 years
[14] = 100 mg QD, day 10, age ≥75 years, median (min–max)
[15] = both, human, in vivo, 100 mg, 100 mg QD, day 10, age 40–50 years
[16] = both, human, in vivo, 100 mg, 100 mg QD, day 10, age 65–74 years
[17] = both, human, in vivo, 100 mg, 100 mg QD, day 10, age ≥75 years
[18] = ≥75 years relative to 40–50 years, point estimate [90% CI]

## O=C(Nc1nc2cccc(-c3ccc(CN4CCS(=O)(=O)CC4)cc3)n2n1)C1CC1 [Filgotinib]
[1]
  Safety and tolerability: generally safe and well tolerated
[2]
  Impact of food on bioavailability: no impact
[2]; no reference given
  Fraction excreted in the urine: < 10%
  Eliminated in urine (filgotinib and its metabolites): > 80%
[3]; day 10, mild RI
  Ae0–24 h (amount excreted in the urine over 24 h): 5.37 (42.1) % dose
[3]; day 10, moderate RI
  Ae0–24 h (amount excreted in the urine over 24 h): 4.34 (51.2) % dose
[3]; day 10, normal renal function
  Ae0–24 h (amount excreted in the urine over 24 h): 7.61 (35.4) % dose
[3]; day 10, severe RI
  Ae0–24 h (amount excreted in the urine over 24 h): 2.08 (34) % dose
[3]; all renal function groups
  Steady state in plasma reached by: ≤ 2 days
[3]; [6]
  AUC(0-t): 1890 ng·h/mL
  CL renal: 49.2 mL/min
[3]; [7]
  AUC(0-t): 2690 ng·h/mL
  CL renal: 31.5 mL/min
  half-life: 10.6 h
[3]; [8]
  AUC(0-t): 1820 ng·h/mL
  CL renal: 74.2 mL/min
  half-life: 5.42 h
[3]; [9]
  AUC(0-t): 2640 ng·h/mL
  CL renal: 15 mL/min
  half-life: 9.03 h
[3]; both, human, in vivo, 100 mg, tmax, day 10, moderate RI
  tmax: 0.6 h
[3]; both, human, in vivo, 100 mg, tmax, day 10, normal renal function
  tmax: 0.8 h
[3]; day 10
  Time after dosing at which Cmax was reached: 1 h
[3]
  CLR lower (drop) compared with subjects with normal renal function: 80%
[4]; [10]
  Ae0–24 h (amount excreted in the urine over 24 h): 8.01 (26.5) ^b % dose
[4]; 100 mg QD, day 10, age 40–50 years, listed as filgotinib
  Ae0–24 h (amount excreted in the urine over 24 h): 8.01 % dose
[4]; [11]
  Ae0–24 h (amount excreted in the urine over 24 h): 6.55 (14.3) ^c % dose
[4]; 100 mg QD, day 10, age 65–74 years, listed as filgotinib
  Ae0–24 h (amount excreted in the urine over 24 h): 6.55 % dose
[4]; [12]
  tmax: 2.0 (0.5–3.0) h
[4]; [13]
  Ae0–24 h (amount excreted in the urine over 24 h): 7.24 (16.9) ^b % dose
[4]; 100 mg QD, day 10, age ≥75 years, listed as filgotinib
  Ae0–24 h (amount excreted in the urine over 24 h): 7.24 % dose
[4]; [14]
  tmax: 2.0 (0.5–3.0) h
[4]; both, human, in vivo, 100 mg
  tmax: 2 h
[4]; [15]
  AUC(0-t): 1600 ng·h/mL
  CL renal: 92.5 mL/min
  half-life: 6.07 h
[4]; [16]
  AUC(0-t): 1790 ng·h/mL
  CL renal: 65 mL/min
  half-life: 5.83 h
[4]; [17]
  AUC(0-t): 2220 ng·h/mL
  CL renal: 55.5 mL/min
  half-life: 6.9 h
[4]
  Time to steady state: steady state by the second dosing day
[4]; [18]
  Fold-change in steady-state AUC0–24 h: 1.40 fold
[5]; in human whole blood
  Selectivity for JAK1 over JAK2: 30 times

## Nc1nc2cccc(-c3ccc(CN4CCS(=O)(=O)CC4)cc3)n2n1 [Metabolite]
[2]; no reference given
  Fraction excreted in the urine: ≥ 50%
[3]; day 10, mild RI
  AUC0–24 h: 30.1 (29.3) μg.h ml^–1
  Ae0–24 h (amount excreted in the urine over 24 h): 35.7 (40.3) % dose
  CLR (renal clearance): 1.21 (42.1) l h^–1
  t½,λz (apparent terminal half-life): 25.4 (24.8) h
  R (metabolite-to-parent ratio, AUC0–24 h): 15.9 (22.0)
  tmax: 3.3 (1.5–5) h
[3]; day 10, moderate RI
  AUC0–24 h: 42.7 (38.4) μg.h ml^–1
  Ae0–24 h (amount excreted in the urine over 24 h): 29.9 (24.1) % dose
  CLR (renal clearance): 0.781 (47.8) l h^–1
  t½,λz (apparent terminal half-life): 31.7 (24.9) h
  R (metabolite-to-parent ratio, AUC0–24 h): 16.7 (35.8)
  tmax: 2.3 (0.5–5) h
[3]; day 10, normal renal function
  AUC0–24 h: 24.9 (31.7) μg.h ml^–1
  Ae0–24 h (amount excreted in the urine over 24 h): 37.4 (11.6) % dose
  CLR (renal clearance): 1.59 (24.5) l h^–1
  t½,λz (apparent terminal half-life): 20.8 (17.1) h
  R (metabolite-to-parent ratio, AUC0–24 h): 13.8 (21.5)
  tmax: 3 (2–4) h
[3]; day 10, severe RI
  AUC0–24 h: 66.6 (18.5) μg.h ml^–1
  Ae0–24 h (amount excreted in the urine over 24 h): 32.1 (9.36) % dose
  CLR (renal clearance): 0.488 (10.6) l h^–1
  t½,λz (apparent terminal half-life): 43.6 (12.6) h
  R (metabolite-to-parent ratio, AUC0–24 h): 26.0 (20.4)
  tmax: 3 (3–4) h
[3]; day 10, mild RI, N = 6
  Cmax: 1.54 (31.3) μg ml^–1
[3]; day 10, moderate RI, N = 6
  Cmax: 2.35 (35.4) μg ml^–1
[3]; day 10, normal renal function, N = 9
  Cmax: 1.63 (31.9) μg ml^–1
[3]; day 10, severe RI, N = 3
  Cmax: 3.43 (14.6) μg ml^–1
[3]; moderate RI vs normal renal function
  CLR drop compared with subjects with normal renal function: 51%
[3]; moderate and severe RI
  Steady-state plasma concentrations reached: 5 days
[3]; normal renal function and mild RI
  Steady-state plasma concentrations reached: 3 days
[3]
  CLR lower (drop) compared with subjects with normal renal function: 69%
[4]; [10]
  AUC0–24 h: 29.4 (27.3) μg.h ml^–1
  Ae0–24 h (amount excreted in the urine over 24 h): 34.3 (22.3) ^b % dose
  CLR (renal clearance): 1.25 (19.3) ^b l h^–1
  t½,λz (apparent terminal half-life): 17.8 (17.9) h
  R (metabolite-to-parent ratio, AUC0–24 h): 18.8 (25.1)
[4]; 100 mg QD, day 10, age 40–50 years, listed as metabolite
  Ae0–24 h (amount excreted in the urine over 24 h): 34.3 % dose
[4]; 100 mg QD, day 10, age 40–50 years, median (min–max)
  tmax: 4.0 (2.0–5.0) h
[4]; [11]
  AUC0–24 h: 34.2 (17.3) μg.h ml^–1
  Ae0–24 h (amount excreted in the urine over 24 h): 37.4 (13.2) ^c % dose
  CLR (renal clearance): 1.13 (20.9) ^c l h^–1
  t½,λz (apparent terminal half-life): 24.7 (23.3) h
  R (metabolite-to-parent ratio, AUC0–24 h): 19.4 (22.0)
[4]; [12]
  tmax: 3.0 (3.0–5.0) h
[4]; [13]
  AUC0–24 h: 40.9 (21.9) μg.h ml^–1
  Ae0–24 h (amount excreted in the urine over 24 h): 37.6 (15.4) ^b % dose
  CLR (renal clearance): 0.926 (29.5) ^b l h^–1
  t½,λz (apparent terminal half-life): 23.5 (21.2) h
  R (metabolite-to-parent ratio, AUC0–24 h): 18.4 (16.4)
[4]; 100 mg QD, day 10, age ≥75 years, listed as metabolite
  Ae0–24 h (amount excreted in the urine over 24 h): 37.6 % dose
[4]; [14]
  tmax: 5.0 (3.0–5.0) h
[4]; day 10, age 40–50 years
  Cmax: 1.69 (26.5) μg ml^–1
[4]; day 10, age 65–74 years
  Cmax: 1.90 (15.5) μg ml^–1
[4]; day 10, age ≥75 years
  Cmax: 2.20 (19.4) μg ml^–1
[4]; mean over the three age groups
  Apparent elimination half-life across age groups: approximately 22 h
[4]
  Time to steady state: ≤ 4 dosing days
[4]; [18]
  Fold-change in steady-state AUC0–24 h: 1.33 fold
  Fold-change in steady-state Cmax: 1.25 fold
[5]; human whole-blood assay
  Reduced potency versus filgotinib: 19 fold

From article PMC6256002 (British Journal of Clinical Pharmacology, 2018)
